The values below come from article PMC6137088, “The Role of Outer Membrane Proteins and Lipopolysaccharides for the Sensitivity of Escherichia coli to Antimicrobial Peptides” (Frontiers in Microbiology, 2018).

In experiment [1] the test system is E. coli BW25113 waaF::kan. In kind it is cell-based, Escherichia coli. The settings on record: Table 3; BW25113 waaF::kan; Mueller-Hinton-II, 16–20 h; duplicates (*) or triplicates. An excerpt:
(§1) The E. coli strains 470, F632, F653 and F2513 were kindly provided by Prof. H. Brade and Prof. S. Muller-Loennies, Research Center Borstel, Leipniz-Center for Medicine and Biosciences, Germany. E. coli BW25113 (CGSC#:7636), a derivative of F^−, λ^− E. coli K12 strain BD792 is the wild-type strain which was used in the generation of the KEIO collection and ordered from the Coli Genetic Stock Centre (CGSC, Yale University). E. coli JW3596, E. coli JW3024, E. coli JW3595, E. coli JW3606, E. coli JW0212, E. coli JW1667, E. coli JW0554, E. coli JW3605 and E. coli JW3600 are isogenic mutants of waaC, waaE, waaF, waaG, gmhA (lpcA), lpp, ompT, waaP, or waaY derived from the parental strain E. coli BW25113 and were ordered from the KEIO collection (Baba et al., [2006]). E. coli ATCC25922 is a clinical isolate, serotype O6, often used as control strain in antimicrobial susceptibility testing was ordered from the ATCC strain collection. All strains were grown in Mueller-Hinton-II medium and incubation took place aerobically at 37°C for 18–20 h.
(§2) The minimum inhibitory concentrations (MICs) of the AMPs were measured in 96-well microtiter plates according the Clinical and Laboratory Standards Institute [CLSI, formerly National Committee for Clinical Laboratory Standards (NCCLS)] (Wikler et al., [2009]). Liquid Mueller-Hinton-II medium containing increasing concentrations of AMPs is inoculated with a defined number of cells (~10^5 CFUs/ml) in 96-well microtiter plates (polypropylene). Each microtiter plate includes a positive growth control and a negative control (sterile control). After incubation, the minimal inhibitory concentration (MIC) is determined by the lowest concentration showing no visible growth. All plates were incubated for 16–20 h.

Experiment [2] relates to E. coli F653 (R3). In kind it is cell-based, Escherichia coli. The settings on record: Table 4; E. coli F653 (R3 prototype, rough LPS); triplicates.
Text: as §1, §2

The test system of experiment [3] is E. coli F632 (R2). In kind it is cell-based, Escherichia coli. The note with it: Table 4; E. coli F632 (R2 prototype, rough LPS); triplicates.
Text: as §1, §2

Experiment [4] deals with E. coli BW25113 ompT::kan. In kind it is cell-based, Escherichia coli. The settings on record: Table 3; BW25113 ompT::kan; Mueller-Hinton-II, 16–20 h; duplicates (*) or triplicates.
Text: as §1, §2

Experiment [5] has as its system E. coli BW25113 waaP::kan. In kind it is cell-based, Escherichia coli. The settings on record: Table 3; BW25113 waaP::kan; Mueller-Hinton-II, 16–20 h; duplicates (*) or triplicates.
Text: as §1, §2

Experiment [6] has as its system E. coli F470 (R1). In kind it is cell-based, Escherichia coli. The note with it: Table 4; E. coli F470 (R1 prototype, rough LPS); triplicates.
Text: as §1, §2

For experiment [7], the system named is E. coli BW25113 waaY::kan. In kind it is cell-based, Escherichia coli. The note with it: Table 3, Mueller-Hinton-II, 16–20 h, duplicates (*) or triplicates.
Text: as §1, §2

Experiment [8] relates to E. coli BW25113 waaG::kan. In kind it is cell-based, Escherichia coli. The settings on record: Table 3; BW25113 waaG::kan; Mueller-Hinton-II, 16–20 h; duplicates (*) or triplicates.
Text: as §1, §2

In experiment [9] the test system is E. coli BW25113 gmhA::kan. In kind it is cell-based, Escherichia coli. The settings on record: Table 3; BW25113 gmhA::kan; Mueller-Hinton-II, 16–20 h; duplicates (*) or triplicates.
Text: as §1, §2

Experiment [10] deals with E. coli BW25113 waaC::kan. In kind it is cell-based, Escherichia coli. The settings on record: Table 3; BW25113 waaC::kan; Mueller-Hinton-II, 16–20 h; duplicates (*) or triplicates.
Text: as §1, §2

Experiment [11] deals with E. coli F2513 (R4). In kind it is cell-based, Escherichia coli. The note with it: Table 4; E. coli F2513 (R4 prototype, rough LPS); triplicates.
Text: as §1, §2

Experiment [12] has as its system E. coli BW25113 waaE::kan. In kind it is cell-based, Escherichia coli. The settings on record: Table 3; BW25113 waaE::kan; Mueller-Hinton-II, 16–20 h; duplicates (*) or triplicates.
Text: as §1, §2

Experiment [13] concerns E. coli BW25113. In kind it is cell-based, Escherichia coli. The note with it: for MIC: Table 3, E. coli BW25113 wild type, Mueller-Hinton-II, ~10^5 CFUs/ml, 16–20 h, duplicates (*) or triplicates; for Antimicrobial activity (MIC): Table 4, E. coli BW25113 (K12 core type), triplicates.
Text: as §1, §2

The subject of experiment [14] is E. coli strains representing core types K12, R1, R2, R3, R4 and ATCC25922. In kind it is cell-based, Escherichia coli. The settings on record: span over isolates and core types of Table 4.
Text: as §1, §2

Experiment [15] concerns E. coli BW25113 lpp::kan. In kind it is cell-based, Escherichia coli. The note with it: Table 3; BW25113 lpp::kan; Mueller-Hinton-II, 16–20 h; duplicates (*) or triplicates.
Text: as §1, §2

Experiment [16] has as its system E. coli ATCC25922 ΔwaaG. In kind it is cell-based, Escherichia coli. The note with it: Table 6, triplicates.
Text: as §1, §2

Experiment [17] concerns E. coli ATCC25922 ΔwaaE. In kind it is cell-based, Escherichia coli. The settings on record: Table 6, triplicates.
Text: as §1, §2

The subject of experiment [18] is E. coli ATCC25922. In kind it is cell-based, Escherichia coli. The settings on record: Table 6; E. coli ATCC25922 wild-type; triplicates.
Text: as §1, §2

Experiment [19] concerns E. coli ATCC25922 ΔwaaC. In kind it is cell-based, Escherichia coli. The settings on record: Table 6, triplicates.
Text: as §1, §2

For experiment [20], the system named is E. coli ATCC25922 ΔwaaF. In kind it is cell-based, Escherichia coli. The settings on record: Table 6, triplicates.
Text: as §1, §2

The test system of experiment [21] is Y. ruckeri 392/2003. The experiment is described as follows: MIC testing (CLSI broth microdilution). In kind it is cell-based. The settings on record: Table 6, triplicates. As to the method: as §2
Experiment [22] deals with S. typhimurium LT2. Briefly: MIC testing (CLSI broth microdilution). In kind it is cell-based. The note with it: Table 6, triplicates. How it is done: as §2
For orientation: Dilution methods test growth across graded concentrations, often in twofold steps.

Experiment [23] concerns enteropathogenic E. coli EPEC E2348/69 ΔompT. The settings on record: ref Thomassin et al., 2012; cited from earlier work. An excerpt:
(§3) Bacterial pathogens have evolved different mechanisms to resist the antimicrobial activity of cationic AMPs (Peschel and Sahl, [2006]). The production of proteases degrading and thereby inactivating cationic AMPs is one obvious way for bacteria to protect themselves against antimicrobials. Several omptins such as OmpT, and PgtE, all proteases found in the OM of various Gram-negative pathogens belonging to the Enterobacteriaceae family, have been associated with the degradation of AMPs (Hritonenko and Stathopoulos, [2007]). In particular, OmpT has been implicated in the proteolytic degradation ...

Experiment [24] concerns uropathogenic E. coli CFT073ΔompT. The note with it: ref Brannon et al., 2013; cited from earlier work.
Text: as §3

Experiment [25] relates to enterohemorrhagic E. coli EHEC EDL933. The note with it: ref Thomassin et al., 2012; cited from earlier work.
Text: as §3

Values after ≈ are worked out from the molar mass of the structure shown. Where no end group is shown, it is not given here.

Take `CC[C@H](C)[C@H](NC(=O)CN)C(=O)NCC(=O)N[C@@H](C)C(=O)N[C@H](C(=O)N[C@@H](CC(C)C)C(=O)N[C@@H](CCCCN)C(=O)N[C@H](C(=O)N[C@@H](CC(C)C)C(=O)N[C@H](C(=O)N[C@H](C(=O)NCC(=O)N[C@@H](CC(C)C)C(=O)N1CCC[C@H]1C(=O)N[C@@H](C)C(=O)N[C@@H](CC(C)C)C(=O)N[C@H](C(=O)N[C@@H](CO)C(=O)N[C@@H](Cc1c[nH]c2ccccc12)C(=O)N[C@H](C(=O)N[C@@H](CCCCN)C(=O)N[C@@H](CCCNC(=N)N)C(=O)N[C@@H](CCCCN)C(=O)N[C@@H](CCCNC(=N)N)C(=O)N[C@@H](CCC(N)=O)C(=O)N[C@@H](CCC(N)=O)C(N)=O)[C@@H](C)CC)[C@@H](C)CC)[C@@H](C)O)[C@@H](C)O)C(C)C)C(C)C` [Melittin]: the MIC in experiment [1] was 4 µg/mL (≈ 1.41 µM); in experiment [4], 32 ^* μg/ml; in experiment [5], 4 µg/mL (≈ 1.41 µM); in [7], 16 to 32 µg/mL; in experiment [8], 4 µg/mL (≈ 1.41 µM); in [9], 2 ^* μg/ml. The minimum inhibitory concentration (MIC) in experiment [10] was 4 µg/mL (≈ 1.41 µM); in experiment [12], 4 µg/mL (≈ 1.41 µM); in experiment [13], 16 to 32 µg/mL. The “Antimicrobial activity (MIC)” value in experiment [2] was 32 µg/mL; in [3] it was 32 µg/mL; in experiment [6], 16 µg/mL; in experiment [11] it was 4 µg/mL. For the same compound, the “MIC over all the tested E. coli strains” value in experiment [14] lay within 4 to 32 µg/mL.
Take “GLRKKFRKTRKRIQKLGRKIGKTGRKVWKAWREYGQIPYPCRI [Cap11]”: the minimum inhibitory concentration (MIC) in [1] is 8 µg/mL; in experiment [15] it was 8 ^* μg/ml; in [5], 8 to 16 µg/mL; in [7], 8 to 16 µg/mL; in experiment [8] it was 8 µg/mL; in experiment [9], 8 ^* μg/ml. The MIC in experiment [10], in [12] and in [13] was 8 µg/mL throughout. Besides, the “Antimicrobial activity (MIC)” value is 16 µg/mL in experiment [2]; 8 µg/mL in experiment [3]; 16 µg/mL in [6]; 4 to 8 µg/mL in [11]; 8 µg/mL in [13].
As for “GLRKRLRKFRNKIKEKLKKIGQKIQGLLPKLAPRTDY [Cap18]”, the “Antimicrobial activity: MIC” value was 4 µg/mL in experiment [16]; 4 µg/mL in [17]; 4 to 8 µg/mL in experiment [18]; 2 to 4 µg/mL in experiment [19]; 2 to 4 µg/mL in experiment [20]; 2 to 4 µg/mL in [21]. The “Antimicrobial activity: MIC” value in experiment [22] was in the range of 4 to 8 µg/mL. The MIC is 4 µg/mL in experiment [1]; 4 to 8 µg/mL in [4]; 4 to 8 µg/mL in experiment [5]; 4 to 8 µg/mL in experiment [7]; 4 µg/mL in [8]; 4 to 8 µg/mL in experiment [9]. Also, the minimal inhibitory concentration (MIC) is 4 µg/mL in experiment [10], 4 µg/mL in experiment [12] and 4 to 8 µg/mL in experiment [13]. Moreover, the “Antimicrobial activity (MIC)” value was 4 to 8 µg/mL in experiment [2]; 4 µg/mL in [3]; 4 µg/mL in [6]; 2 to 4 µg/mL in experiment [11]; 4 to 8 µg/mL in experiment [13]. Besides, in [14], the “MIC over all the tested E. coli strains” value was in the range of 4 to 8 µg/mL.
On to LL-37, for which, in experiment [23], the “decrease in MIC in the ΔompT mutant compared to parental EPEC E2348/69 (factor)” value is “unchanged”. The “change of MIC in CFT073ΔompT compared to wild-type CFT073” value in experiment [24] is given as “unchanged”. Further, in [25], the “decrease of MIC by loss of OmpT in EHEC EDL933 (factor)” value is recorded as 2.

Usually MIC stands for the lowest concentration found to suppress growth. Higher therefore signals a less susceptible organism.
